Measurements reported in US6444688B1, “Compounds and compositions with nitrogen-containing non-basic side chains” (Eli Lilly and Company, priority 1995, dated 2002).
“And” between values parts separate entries of the source, which are not always exact repeats. Equal values may be shown once. Marks after values point to notes of the source that are not given here.

Tests used:
Assay type in all cases: in vivo, Sprague Dawley rats
[1] = system: ovariectomized (OVX) rats; assay: Four day dosing regimen, post-menopausal rat model: wet uterine weight; conditions: for Uterine Weight (% inc. OVX): OVX rats, oral, daily for 4 days
Description: (§1) Animals were dosed daily for 4 days. […] A blood sample was collected by cardiac puncture.

[2] = system: uterine eosinophil peroxidase activity; assay: Uterine eosinophil peroxidase (EPO) assay, four day dosing; conditions: for Uterine EPO (Vmax): OVX rats, oral, daily for 4 days
Description: as §1

[3] = system: ovariectomized (OVX) rats; assay: Serum cholesterol analysis, four day dosing
Description: as §1
Blood samples were allowed to clot at room temperature for 2 hours, and serum was obtained following centrifugation for 10 minutes at 3000 rpm. Serum cholesterol was determined using a Boehringer Mannheim Diagnostics high performance cholesterol assay. Briefly the cholesterol was oxidized to cholest-4-en-3-one and hydrogen peroxide. The hydrogen peroxide was then reacted with phenol and 4-aminophenazone in the presence of peroxidase to produce a p-quinone imine dye, which was read spectrophotemetrically at 500 nm. Cholesterol concentration was then calculated against a standard curve. The entire assay was automated using a Biomek Automated Workstation.

[4] = system: ovariectomized (OVX) rats; assay: Thirty-five day dosing regimen: bone density assay (tibia, single photon absorptiometry); conditions: oral in 20% hydroxypropyl β-cyclodextrin, daily for 35 days
Description: Following the General Preparation procedure described above, the rats were treated daily for 35 days (6 rats per treatment group) and sacrificed by decapitation on the 36th day. The 35 day time period was sufficient to allow maximal effect on bone density, measured as described herein. At the time of sacrifice, the uteri were removed, dissected free of extraneous tissue, and the fluid contents were expelled before determination of wet weight in order to confirm estrogen deficiency associated with complete ovariectomy. […] The uteri were then placed in 10% neutral buffered formalin to allow for subsequent histological analysis. The right tibias were excised and scanned at the distal metaphysis 1 mm from the patellar groove with single photon absorptiometry. Results of the densitometer measurements represent a calculation of bone density as a function of the bone mineral content and bone width. In accordance with the procedures outlined above, compounds of the present invention and EE2 in 20% hydroxypropyl β-cyclodextrin were orally administered to test animals.

[5] = Rattus norvegicus, po, 96 h, OVX rats, oral, daily for 4 days, read-out: Serum Cholesterol (% dec. OVX)

Uterine Weight (% inc. OVX) ([1]; dose 0.1 mg/kg)	Uterine Weight (% inc. OVX) ([1]; dose 1 mg/kg)	Uterine Weight (% inc. OVX) ([1]; dose 10 mg/kg)	Uterine EPO (Vmax) ([2]; dose 0.1 mg/kg)	Uterine EPO (Vmax) ([2]; dose 1 mg/kg)	Uterine EPO (Vmax) ([2]; dose 10 mg/kg)	Uterine Weight (% inc. OVX) ([1]; dose 0.01 mg/kg)	Uterine EPO (Vmax) ([2]; dose 0.01 mg/kg)	effect on uterine weight compared to ovariectomized animals (in words) ([1]; EE2 orally at 0.1 mg/Kg/day)	eosinophil infiltration into the uterus, by eosinophil peroxidase activity (in words) ([2]; ovariectomized rats)	SMILES	inhibition in vivo at 0.01 mg/kg ([3]; Rattus norvegicus, po, 96 h, OVX rats, oral, daily for 4 days, dose 0.01 mg/kg, read-out: Serum Cholesterol (% dec. OVX)) [%]	inhibition in vivo at 0.1 mg/kg [3, 5] [%]	inhibition in vivo at 10 mg/kg [3, 5] [%]	inhibition in vivo at 1 mg/kg [3, 5] [%]	effect on serum cholesterol compared to ovariectomized control animals (in words) ([3]; EE2 orally at 0.1 mg/Kg/day)	tibia density / bone loss after ovariectomy (in words) [4]
13.3 % inc. OVX	17.8 % inc. OVX	57.6* % inc. OVX	8.0 Vmax	7.8 Vmax	8.9 Vmax					O=C(c1ccc(OCCN2CCCCC2=O)cc1)c1c(-c2ccc(O)cc2)sc2cc(O)ccc12 [Compound 3]						
−9 % inc. OVX	15.4 % inc. OVX	40.3* % inc. OVX	3.6 Vmax	1.4 Vmax	3.7 Vmax					O=C(c1ccc(OCCN2CCCC2=O)cc1)c1c(-c2ccc(O)cc2)sc2cc(O)ccc12 [Compound 6]						
			3.6 Vmax and 4.4 Vmax	6.1 Vmax and 3.7 Vmax		−22.9	3.5			O=C(c1ccc(OCC(=O)N2CCCC2)cc1)c1c(-c2ccc(O)cc2)sc2cc(O)ccc12 [Compound 8]	27.2	17.4	70.3			
−10.0 % inc. OVX	6.5 % inc. OVX	51.7* % inc. OVX	2.8 Vmax	3.6 Vmax	32 Vmax					O=C(c1ccc(OCC(=O)N2CCCCC2)cc1)c1c(-c2ccc(O)cc2)sc2cc(O)ccc12 [Compound 9]						
1.5 % inc. OVX	−6.7 % inc. OVX	38.0* % inc. OVX	4.3 Vmax	3.1 Vmax	17.0 Vmax					CCCCN(C)C(=O)COc1ccc(C(=O)c2c(-c3ccc(O)cc3)sc3cc(O)ccc23)cc1 [Compound 10]						
−7.7 % inc. OVX	15.4 % inc. OVX	60.7* % inc. OVX	3.7 Vmax	6.7 Vmax	122.3* Vmax					CN(C)C(=O)COc1ccc(C(=O)c2c(-c3ccc(O)cc3)sc3cc(O)ccc23)cc1 [Compound 12]						
22.2 % inc. OVX	7.2 % inc. OVX	−4.0 % inc. OVX	1.9 Vmax	1.7 Vmax	2.5 Vmax					O=C(c1ccc(OCCN2C(=O)CCC2=O)cc1)c1c(-c2ccc(O)cc2)sc2cc(O)ccc12 [Compound 13]						
18.8 % inc. OVX	14.6 % inc. OVX	124.6* % inc. OVX	3.3 Vmax	2.4 Vmax	145.8* Vmax					N#CCOc1ccc(C(=O)c2c(-c3ccc(O)cc3)sc3cc(O)ccc23)cc1 [Compound 14]			91.1			
0.7 % inc. OVX	27.4 % inc. OVX	99.2* % inc. OVX	2.3 Vmax	3.9 Vmax	23.4 Vmax					CC(C#N)Oc1ccc(C(=O)c2c(-c3ccc(O)cc3)sc3cc(O)ccc23)cc1 (stereo not shown) [Compound 16]		3.4	71.2	28.8		
16.1 % inc. OVX	25.7 % inc. OVX	12.6 % inc. OVX	3.2 Vmax	3.6 Vmax	3.6 Vmax					O=C(NCCOc1ccc(C(=O)c2c(-c3ccc(O)cc3)sc3cc(O)ccc23)cc1)c1ccccc1 [Compound 18]		-10.8	12.8	-12.2		
7 % inc. OVX	−25.5* % inc. OVX	47.0* % inc. OVX	5.4 Vmax	3.7 Vmax	29.3* Vmax					CC(=O)N(CCOc1ccc(C(=O)c2c(-c3ccc(O)cc3)sc3cc(O)ccc23)cc1)C1CCCCC1 [Compound 19]			52.2	20.1		
−29.9 % inc. OVX	−27.4 % inc. OVX	−32.7 % inc. OVX	3.0 Vmax	2.5 Vmax	2.9 Vmax					O=C(NCCOc1ccc(C(=O)c2c(-c3ccc(O)cc3)sc3cc(O)ccc23)cc1)NC1CCCCC1 [Compound 20]						
−5.5 % inc. OVX	−11.5 % inc. OVX	8.6 % inc. OVX	3.1 Vmax	2.6 Vmax	2.4 Vmax					O=C(c1ccc(OCCNC(=O)C2CCCCC2)cc1)c1c(-c2ccc(O)cc2)sc2cc(O)ccc12 [Compound 21]		9.3	24	0.5		
1.9 % inc. OVX	19.6 % inc. OVX	46.9* % inc. OVX	3.5 Vmax	20.0 Vmax	69.5* Vmax					CC(C)(C)C(=O)N1CCCCC1COc1ccc(C(=O)c2c(-c3ccc(O)cc3)sc3cc(O)ccc23)cc1 (stereo not shown) [Compound 22]		22.1	71.5	36.2		
−4.3 % inc. OVX	0.8 % inc. OVX	22.3 % inc. OVX	1.6 Vmax	3.8 Vmax	6.7 Vmax					CC(C)(C)C(=O)N1CCC(Oc2ccc(C(=O)c3c(-c4ccc(O)cc4)sc4cc(O)ccc34)cc2)CC1 [Compound 23]			55.8			
−17.5 % inc. OVX	−28.8* % inc. OVX	25.8* % inc. OVX	1.3 Vmax	0.7 Vmax	13.6 Vmax					CC(=O)NCCOc1ccc(C(=O)c2c(-c3ccc(O)cc3)sc3cc(O)ccc23)cc1 [Compound 26]			32.8	19		
235.2* % inc. OVX			120.0* Vmax					substantially greater	substantial, expected increase	C#C[C@]1(O)CC[C@H]2[C@@H]3CCc4cc(O)ccc4[C@H]3CC[C@@]21C [ethynyl estradiol, 17α-Ethynyl estradiol, reference compound]					decrease in serum cholesterol	prevented this loss
